Experimental data published in the kinase profiling compilation of Christmann-Franck et al. (2016).

Tests used:
Assay in all cases: KINOMEscan competition binding
Conditions in all cases: compound 10.0 µM
STK39 (human) = STK39 (human) (UniProt Q9UEW8)
ADCK3 (human) = ADCK3 (human) (UniProt Q8NI60)
STK32B (human) = STK32B (human) (UniProt Q9NY57)
GRK7 (human) = GRK7 (human) (UniProt Q8WTQ7)
PRKCQ (human) = PRKCQ (human) (UniProt Q04759)
CDC42BPG (human) = CDC42BPG (human) (UniProt Q6DT37)
AKT2 (human) = AKT2 (human) (UniProt P31751)
CAMK1D (human) = CAMK1D (human) (UniProt Q8IU85)
CDKL5 (human) = CDKL5 (human) (UniProt O76039)
MARK1 (human) = MARK1 (human) (UniProt Q9P0L2)
VRK2 (human) = VRK2 (human) (UniProt Q86Y07)
PIM3 (human) = PIM3 (human) (UniProt Q86V86)
HIPK4 (human) = HIPK4 (human) (UniProt Q8NE63)
FGR (human) = FGR (human) (UniProt P09769)
WEE2 (human) = WEE2 (human) (UniProt P0C1S8)
PI4KB (human) = PI4KB (human) (UniProt Q9UBF8)
CAMK2A (human) = CAMK2A (human) (UniProt Q9UQM7)
STK4 (human) = STK4 (human) (UniProt Q13043)
STK4 (human), sequence (Q13043 whole entry, looked up): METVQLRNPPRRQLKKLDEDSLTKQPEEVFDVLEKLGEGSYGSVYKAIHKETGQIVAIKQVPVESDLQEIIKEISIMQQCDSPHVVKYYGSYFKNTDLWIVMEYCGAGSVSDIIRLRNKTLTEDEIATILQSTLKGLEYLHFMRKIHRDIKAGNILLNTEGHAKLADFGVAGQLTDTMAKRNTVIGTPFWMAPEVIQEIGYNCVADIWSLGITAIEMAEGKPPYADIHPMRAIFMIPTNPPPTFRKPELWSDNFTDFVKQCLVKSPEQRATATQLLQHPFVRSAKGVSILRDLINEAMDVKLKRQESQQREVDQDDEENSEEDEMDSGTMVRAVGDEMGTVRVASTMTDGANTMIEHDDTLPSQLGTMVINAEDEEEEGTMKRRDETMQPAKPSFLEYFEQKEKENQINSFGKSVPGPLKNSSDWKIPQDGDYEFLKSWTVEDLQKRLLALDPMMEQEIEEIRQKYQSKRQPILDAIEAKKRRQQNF

RPS6KA6 KD2 (human) = RPS6KA6 KD2 (human) (UniProt Q9UK32)
[1] = molecular target: JAK2 JH1 catalytic (human) (UniProt O60674)
JAK2 JH1 catalytic (human), sequence (O60674 whole entry, looked up): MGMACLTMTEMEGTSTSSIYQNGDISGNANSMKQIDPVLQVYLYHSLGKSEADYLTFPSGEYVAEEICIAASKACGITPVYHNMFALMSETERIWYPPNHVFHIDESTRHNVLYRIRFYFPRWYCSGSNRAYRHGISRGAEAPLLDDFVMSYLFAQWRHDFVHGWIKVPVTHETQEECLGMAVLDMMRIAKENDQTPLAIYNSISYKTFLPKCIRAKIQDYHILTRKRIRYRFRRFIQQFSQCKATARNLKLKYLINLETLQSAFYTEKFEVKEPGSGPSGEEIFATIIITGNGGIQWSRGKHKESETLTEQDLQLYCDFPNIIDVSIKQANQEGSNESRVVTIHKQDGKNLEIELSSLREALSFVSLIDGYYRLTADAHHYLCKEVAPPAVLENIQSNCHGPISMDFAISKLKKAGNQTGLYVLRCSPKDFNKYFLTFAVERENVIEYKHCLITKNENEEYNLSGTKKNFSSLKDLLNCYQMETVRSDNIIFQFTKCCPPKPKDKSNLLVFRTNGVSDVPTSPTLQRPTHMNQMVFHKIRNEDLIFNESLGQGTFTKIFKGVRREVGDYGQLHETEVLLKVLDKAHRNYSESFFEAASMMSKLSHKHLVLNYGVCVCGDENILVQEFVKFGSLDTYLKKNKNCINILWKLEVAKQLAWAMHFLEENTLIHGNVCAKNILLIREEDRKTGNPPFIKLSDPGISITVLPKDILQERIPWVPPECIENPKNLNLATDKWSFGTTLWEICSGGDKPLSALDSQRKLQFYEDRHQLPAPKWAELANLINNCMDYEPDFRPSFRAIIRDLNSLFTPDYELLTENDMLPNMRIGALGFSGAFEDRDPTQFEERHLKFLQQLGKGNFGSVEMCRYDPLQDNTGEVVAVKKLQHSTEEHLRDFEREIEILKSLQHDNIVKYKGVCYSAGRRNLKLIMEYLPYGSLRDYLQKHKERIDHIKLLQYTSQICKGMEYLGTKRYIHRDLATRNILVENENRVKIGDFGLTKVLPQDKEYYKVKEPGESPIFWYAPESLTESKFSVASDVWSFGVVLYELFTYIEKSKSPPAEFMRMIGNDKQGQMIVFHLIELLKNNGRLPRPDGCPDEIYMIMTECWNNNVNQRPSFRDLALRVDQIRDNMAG

CDK4 CCND3 (human) = CDK4 CCND3 (human) (UniProt P11802+P30281)
EPHA5 (human) = EPHA5 (human) (UniProt P54756)
RPS6KA5 KD2 (human) = RPS6KA5 KD2 (human) (UniProt O75582)
CDK4 CCND1 (human) = CDK4 CCND1 (human) (UniProt P11802+P24385)
[2] = molecular target: JAK1 JH1 catalytic (human) (UniProt P23458)
MAP3K4 (human) = MAP3K4 (human) (UniProt Q9Y6R4)
MAPK1 (human) = MAPK1 (human) (UniProt P28482)
PRKACA (human) = PRKACA (human) (UniProt P17612)
[3] = test system: KIT (human), P10721 [V559D/V654A]
ACVR1 (human) = ACVR1 (human) (UniProt Q04771)
RIOK3 (human) = RIOK3 (human) (UniProt O14730)
MYO3A (human) = MYO3A (human) (UniProt Q8NEV4)
CLK3 (human) = CLK3 (human) (UniProt P49761)
NTRK2 (human) = NTRK2 (human) (UniProt Q16620)
RPS6KB1 (human) = RPS6KB1 (human) (UniProt P23443)
NEK1 (human) = NEK1 (human) (UniProt Q96PY6)
MAPK6 (human) = MAPK6 (human) (UniProt Q16659)
PTK2B (human) = PTK2B (human) (UniProt Q14289)
MYLK3 (human) = MYLK3 (human) (UniProt Q32MK0)
MYLK3 (human), sequence (Q32MK0 whole entry, looked up): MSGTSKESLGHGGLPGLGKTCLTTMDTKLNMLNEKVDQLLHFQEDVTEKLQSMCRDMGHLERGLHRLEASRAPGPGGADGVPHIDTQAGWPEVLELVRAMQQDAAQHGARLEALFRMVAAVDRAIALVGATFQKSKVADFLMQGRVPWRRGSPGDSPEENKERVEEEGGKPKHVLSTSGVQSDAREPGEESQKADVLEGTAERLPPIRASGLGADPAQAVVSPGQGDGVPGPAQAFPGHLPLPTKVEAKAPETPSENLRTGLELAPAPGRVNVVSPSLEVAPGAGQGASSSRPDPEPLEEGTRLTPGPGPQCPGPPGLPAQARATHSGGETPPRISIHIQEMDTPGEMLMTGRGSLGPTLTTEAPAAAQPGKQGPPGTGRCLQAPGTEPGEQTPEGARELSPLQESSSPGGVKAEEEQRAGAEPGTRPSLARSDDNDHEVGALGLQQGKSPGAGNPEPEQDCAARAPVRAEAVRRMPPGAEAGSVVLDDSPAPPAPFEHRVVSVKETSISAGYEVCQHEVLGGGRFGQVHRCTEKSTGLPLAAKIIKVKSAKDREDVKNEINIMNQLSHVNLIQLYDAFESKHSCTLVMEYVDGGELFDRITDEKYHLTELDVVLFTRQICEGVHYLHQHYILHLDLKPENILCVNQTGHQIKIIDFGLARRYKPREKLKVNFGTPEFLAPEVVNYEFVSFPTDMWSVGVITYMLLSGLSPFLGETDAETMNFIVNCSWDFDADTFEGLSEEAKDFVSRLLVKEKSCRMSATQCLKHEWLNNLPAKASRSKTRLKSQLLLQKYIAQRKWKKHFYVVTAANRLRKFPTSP

MAP3K3 (human) = MAP3K3 (human) (UniProt Q99759)

STK32B (human), sequence (Q9NY57 whole entry, looked up): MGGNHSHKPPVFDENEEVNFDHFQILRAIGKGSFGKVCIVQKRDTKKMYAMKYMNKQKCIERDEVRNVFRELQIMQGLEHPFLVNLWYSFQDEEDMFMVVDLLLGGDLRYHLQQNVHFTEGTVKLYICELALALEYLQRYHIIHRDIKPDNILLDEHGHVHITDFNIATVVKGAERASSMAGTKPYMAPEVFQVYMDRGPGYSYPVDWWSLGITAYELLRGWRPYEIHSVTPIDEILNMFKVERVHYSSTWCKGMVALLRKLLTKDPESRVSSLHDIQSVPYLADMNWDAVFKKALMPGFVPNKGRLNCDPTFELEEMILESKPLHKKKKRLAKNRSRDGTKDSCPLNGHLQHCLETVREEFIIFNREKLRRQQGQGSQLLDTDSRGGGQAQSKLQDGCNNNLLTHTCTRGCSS
GRK7 (human), sequence (Q8WTQ7 whole entry, looked up): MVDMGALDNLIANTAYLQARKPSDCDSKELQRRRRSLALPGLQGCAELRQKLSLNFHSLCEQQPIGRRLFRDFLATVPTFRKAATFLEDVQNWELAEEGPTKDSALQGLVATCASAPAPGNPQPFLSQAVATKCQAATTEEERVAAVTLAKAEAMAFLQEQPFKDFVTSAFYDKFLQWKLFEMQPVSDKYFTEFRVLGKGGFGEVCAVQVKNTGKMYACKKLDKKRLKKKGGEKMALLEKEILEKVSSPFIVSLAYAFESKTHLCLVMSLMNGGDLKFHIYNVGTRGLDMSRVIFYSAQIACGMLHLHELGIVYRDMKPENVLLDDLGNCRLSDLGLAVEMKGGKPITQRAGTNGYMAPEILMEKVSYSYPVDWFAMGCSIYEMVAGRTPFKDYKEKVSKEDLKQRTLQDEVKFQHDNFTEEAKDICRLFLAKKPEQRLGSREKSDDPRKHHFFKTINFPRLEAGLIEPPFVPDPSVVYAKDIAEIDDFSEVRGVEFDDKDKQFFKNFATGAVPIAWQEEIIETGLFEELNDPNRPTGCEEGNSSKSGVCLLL
CDC42BPG (human), sequence (Q6DT37 whole entry, looked up): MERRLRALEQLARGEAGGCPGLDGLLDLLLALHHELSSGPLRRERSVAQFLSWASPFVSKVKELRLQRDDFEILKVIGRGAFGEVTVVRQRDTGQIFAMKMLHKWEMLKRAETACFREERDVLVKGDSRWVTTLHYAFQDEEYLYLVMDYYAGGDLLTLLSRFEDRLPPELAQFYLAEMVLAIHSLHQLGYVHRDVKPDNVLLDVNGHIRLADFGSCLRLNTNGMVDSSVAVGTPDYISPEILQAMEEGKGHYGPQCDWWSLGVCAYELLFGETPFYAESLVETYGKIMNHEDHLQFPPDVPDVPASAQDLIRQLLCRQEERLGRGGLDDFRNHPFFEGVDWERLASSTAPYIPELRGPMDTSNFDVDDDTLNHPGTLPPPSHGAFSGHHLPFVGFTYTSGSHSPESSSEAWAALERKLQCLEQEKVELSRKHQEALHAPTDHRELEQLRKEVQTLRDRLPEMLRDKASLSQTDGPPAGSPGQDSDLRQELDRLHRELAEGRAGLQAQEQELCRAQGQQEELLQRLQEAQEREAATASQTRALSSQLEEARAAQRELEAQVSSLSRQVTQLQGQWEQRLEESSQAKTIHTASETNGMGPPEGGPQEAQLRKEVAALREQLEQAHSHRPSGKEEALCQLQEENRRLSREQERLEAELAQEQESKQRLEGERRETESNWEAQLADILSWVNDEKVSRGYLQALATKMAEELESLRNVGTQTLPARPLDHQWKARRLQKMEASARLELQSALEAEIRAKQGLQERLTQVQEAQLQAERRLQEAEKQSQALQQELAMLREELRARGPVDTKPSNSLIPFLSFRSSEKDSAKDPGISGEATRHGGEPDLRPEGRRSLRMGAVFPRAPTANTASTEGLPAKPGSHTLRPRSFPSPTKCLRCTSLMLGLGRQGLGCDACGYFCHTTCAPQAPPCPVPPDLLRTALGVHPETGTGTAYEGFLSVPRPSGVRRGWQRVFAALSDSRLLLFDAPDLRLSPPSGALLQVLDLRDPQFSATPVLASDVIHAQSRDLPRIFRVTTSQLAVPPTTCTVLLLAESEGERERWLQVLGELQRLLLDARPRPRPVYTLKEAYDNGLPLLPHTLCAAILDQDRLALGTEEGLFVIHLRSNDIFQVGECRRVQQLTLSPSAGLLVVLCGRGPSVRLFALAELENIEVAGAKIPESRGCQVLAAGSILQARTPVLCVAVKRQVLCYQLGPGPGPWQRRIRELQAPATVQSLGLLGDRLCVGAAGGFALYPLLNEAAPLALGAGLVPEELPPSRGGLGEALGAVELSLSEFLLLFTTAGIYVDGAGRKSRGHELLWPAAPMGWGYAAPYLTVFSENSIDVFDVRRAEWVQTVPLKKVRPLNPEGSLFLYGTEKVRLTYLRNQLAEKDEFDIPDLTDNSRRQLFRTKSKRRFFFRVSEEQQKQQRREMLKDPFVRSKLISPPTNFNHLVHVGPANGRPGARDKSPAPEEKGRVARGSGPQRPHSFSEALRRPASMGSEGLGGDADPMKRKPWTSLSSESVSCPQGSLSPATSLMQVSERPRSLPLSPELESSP

Structure (SMILES) | kinase still bound, per cent of control (STK39 (human)) [%] | kinase still bound, per cent of control (ADCK3 (human)) [%] | kinase still bound, per cent of control (STK32B (human)) [%] | kinase still bound, per cent of control (GRK7 (human)) [%] | kinase still bound, per cent of control (PRKCQ (human)) [%] | kinase still bound, per cent of control (CDC42BPG (human)) [%] | kinase still bound, per cent of control (AKT2 (human)) [%] | kinase still bound, per cent of control (CAMK1D (human)) [%] | kinase still bound, per cent of control (CDKL5 (human)) [%] | kinase still bound, per cent of control (MARK1 (human)) [%] | kinase still bound, per cent of control (VRK2 (human)) [%] | kinase still bound, per cent of control (PIM3 (human)) [%] | kinase still bound, per cent of control (HIPK4 (human)) [%] | kinase still bound, per cent of control (FGR (human)) [%] | kinase still bound, per cent of control (WEE2 (human)) [%] | kinase still bound, per cent of control (PI4KB (human)) [%] | kinase still bound, per cent of control (CAMK2A (human)) [%] | kinase still bound, per cent of control (STK4 (human)) [%] | kinase still bound, per cent of control (RPS6KA6 KD2 (human)) [%] | kinase still bound, per cent of control [1] [%] | other results
COc1cc(C(=O)N2CCC(N3CCN(C)CC3)CC2)ccc1Nc1ncc2c(n1)N(C)c1ccccc1C(=O)N2C | 39 | 71 | 100 | 100 | 100 | 100 | 100 | 69 | 100 | 87 | 99 | 88 | 100 | 84 | 100 | 95 | 21 | 100 | 2.2 | 70 | kinase still bound, per cent of control (CDK4 CCND3 (human)): 100%; kinase still bound, per cent of control (EPHA5 (human)): 95%; kinase still bound, per cent of control (RPS6KA5 KD2 (human)): 92%; kinase still bound, per cent of control (CDK4 CCND1 (human)): 100%; kinase still bound, per cent of control [2]: 100%; kinase still bound, per cent of control (MAP3K4 (human)): 100%; kinase still bound, per cent of control (MAPK1 (human)): 85%; kinase still bound, per cent of control (PRKACA (human)): 100%; kinase still bound, per cent of control [3]: 100%; kinase still bound, per cent of control (ACVR1 (human)): 98%; kinase still bound, per cent of control (RIOK3 (human)): 85%; kinase still bound, per cent of control (MYO3A (human)): 94%; kinase still bound, per cent of control (CLK3 (human)): 95%; kinase still bound, per cent of control (NTRK2 (human)): 100%; kinase still bound, per cent of control (RPS6KB1 (human)): 100%; kinase still bound, per cent of control (NEK1 (human)): 83%; kinase still bound, per cent of control (MAPK6 (human)): 100%; kinase still bound, per cent of control (PTK2B (human)): 78%; kinase still bound, per cent of control (MYLK3 (human)): 100%; kinase still bound, per cent of control (MAP3K3 (human)): 97%
N#CCNC(=O)c1ccc(-c2ccnc(Nc3ccc(N4CCOCC4)cc3)n2)cc1 | 47 | 90 | 93 | 100 | 100 | 96 | 76 | 40 | 65 | 66 | 94 | 100 | 12 | 92 | 100 | 17 | 26 | 100 | 52 | 0.1 | kinase still bound, per cent of control (CDK4 CCND3 (human)): 13%; kinase still bound, per cent of control (EPHA5 (human)): 87%; kinase still bound, per cent of control (RPS6KA5 KD2 (human)): 9.3%; kinase still bound, per cent of control (CDK4 CCND1 (human)): 13%; kinase still bound, per cent of control [2]: 13%; kinase still bound, per cent of control (MAP3K4 (human)): 92%; kinase still bound, per cent of control (MAPK1 (human)): 93%; kinase still bound, per cent of control (PRKACA (human)): 96%; kinase still bound, per cent of control [3]: 100%; kinase still bound, per cent of control (ACVR1 (human)): 0.95%; kinase still bound, per cent of control (RIOK3 (human)): 0%; kinase still bound, per cent of control (MYO3A (human)): 100%; kinase still bound, per cent of control (CLK3 (human)): 91%; kinase still bound, per cent of control (NTRK2 (human)): 67%; kinase still bound, per cent of control (RPS6KB1 (human)): 100%; kinase still bound, per cent of control (NEK1 (human)): 42%; kinase still bound, per cent of control (MAPK6 (human)): 71%; kinase still bound, per cent of control (PTK2B (human)): 86%; kinase still bound, per cent of control (MYLK3 (human)): 68%; kinase still bound, per cent of control (MAP3K3 (human)): 51%
